ChEMBL document CHEMBL1201862, “PubChem BioAssay data set” (2004)
Calls of active or inactive are those of the source.

Legend:
[1] = A cytotoxicity screen of small molecule inhibitors of the PhoP region in Salmonella typhi identified in the primary screen. [Related pubchem assays: 1850, 1864, 1985 ]; format: functional
[2] = target: T1, Coagulation factor XII (Homo sapiens, UniProt P00748); format: functional;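 further: activated factor XIIa alpha cleaving a fluorogenic AMC peptide substrate; inhibitor potency from loss of enzyme activity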
T1 sequence (P00748 whole entry): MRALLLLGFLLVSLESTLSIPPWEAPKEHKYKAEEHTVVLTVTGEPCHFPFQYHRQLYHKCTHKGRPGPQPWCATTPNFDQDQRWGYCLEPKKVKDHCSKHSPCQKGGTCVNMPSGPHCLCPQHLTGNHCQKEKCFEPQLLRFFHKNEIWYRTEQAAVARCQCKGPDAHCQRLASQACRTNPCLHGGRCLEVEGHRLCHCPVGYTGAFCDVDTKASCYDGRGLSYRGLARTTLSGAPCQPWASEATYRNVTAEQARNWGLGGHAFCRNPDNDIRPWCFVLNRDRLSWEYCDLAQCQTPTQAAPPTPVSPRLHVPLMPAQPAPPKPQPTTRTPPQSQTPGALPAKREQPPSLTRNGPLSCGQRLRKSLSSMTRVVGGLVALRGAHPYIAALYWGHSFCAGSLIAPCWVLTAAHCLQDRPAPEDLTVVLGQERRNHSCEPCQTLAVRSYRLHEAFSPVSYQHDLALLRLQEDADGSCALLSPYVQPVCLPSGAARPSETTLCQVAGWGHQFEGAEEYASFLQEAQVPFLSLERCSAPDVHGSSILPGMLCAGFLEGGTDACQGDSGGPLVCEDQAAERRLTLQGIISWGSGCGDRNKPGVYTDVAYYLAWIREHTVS

[3] = target: T2, Caspase-6 (Homo sapiens, UniProt P55212); assay: inhibition of CASP6 peptide cleavage – biochemical, VEID-R110 fluorescence, cherry-pick, dose response (AID 720632)
T2 sequence (P55212 whole entry): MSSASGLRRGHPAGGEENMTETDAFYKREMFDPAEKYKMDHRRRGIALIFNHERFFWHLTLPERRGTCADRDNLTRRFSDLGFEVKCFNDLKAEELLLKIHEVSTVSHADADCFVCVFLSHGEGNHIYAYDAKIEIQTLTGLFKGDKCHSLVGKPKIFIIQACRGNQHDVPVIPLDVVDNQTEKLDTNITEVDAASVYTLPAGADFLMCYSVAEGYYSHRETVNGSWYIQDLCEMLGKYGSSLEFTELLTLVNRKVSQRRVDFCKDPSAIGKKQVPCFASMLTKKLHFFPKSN

[4] = target: T3, Caspase-3 (Homo sapiens, UniProt P42574); format: functional;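 further: Dose-response selectivity test against caspase-3 for candidate inhibitors of sentrin-specific proteases (SENPs)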
T3 sequence (P42574 whole entry): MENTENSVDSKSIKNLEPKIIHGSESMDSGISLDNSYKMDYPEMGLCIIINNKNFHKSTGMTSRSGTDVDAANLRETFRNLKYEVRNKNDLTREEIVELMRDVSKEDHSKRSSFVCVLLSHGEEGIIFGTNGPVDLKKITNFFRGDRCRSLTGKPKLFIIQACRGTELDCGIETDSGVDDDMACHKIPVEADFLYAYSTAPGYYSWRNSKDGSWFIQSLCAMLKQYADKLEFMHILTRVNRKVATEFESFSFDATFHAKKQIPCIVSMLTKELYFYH

[5] = target: T4, Sentrin-specific protease 7 (Homo sapiens, UniProt Q9BQF6); format: functional;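 further: Luminescence-based dose-response confirmation of ultra-high-throughput screening hits, measuring inhibition of SENP7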
T4 sequence (Q9BQF6 whole entry): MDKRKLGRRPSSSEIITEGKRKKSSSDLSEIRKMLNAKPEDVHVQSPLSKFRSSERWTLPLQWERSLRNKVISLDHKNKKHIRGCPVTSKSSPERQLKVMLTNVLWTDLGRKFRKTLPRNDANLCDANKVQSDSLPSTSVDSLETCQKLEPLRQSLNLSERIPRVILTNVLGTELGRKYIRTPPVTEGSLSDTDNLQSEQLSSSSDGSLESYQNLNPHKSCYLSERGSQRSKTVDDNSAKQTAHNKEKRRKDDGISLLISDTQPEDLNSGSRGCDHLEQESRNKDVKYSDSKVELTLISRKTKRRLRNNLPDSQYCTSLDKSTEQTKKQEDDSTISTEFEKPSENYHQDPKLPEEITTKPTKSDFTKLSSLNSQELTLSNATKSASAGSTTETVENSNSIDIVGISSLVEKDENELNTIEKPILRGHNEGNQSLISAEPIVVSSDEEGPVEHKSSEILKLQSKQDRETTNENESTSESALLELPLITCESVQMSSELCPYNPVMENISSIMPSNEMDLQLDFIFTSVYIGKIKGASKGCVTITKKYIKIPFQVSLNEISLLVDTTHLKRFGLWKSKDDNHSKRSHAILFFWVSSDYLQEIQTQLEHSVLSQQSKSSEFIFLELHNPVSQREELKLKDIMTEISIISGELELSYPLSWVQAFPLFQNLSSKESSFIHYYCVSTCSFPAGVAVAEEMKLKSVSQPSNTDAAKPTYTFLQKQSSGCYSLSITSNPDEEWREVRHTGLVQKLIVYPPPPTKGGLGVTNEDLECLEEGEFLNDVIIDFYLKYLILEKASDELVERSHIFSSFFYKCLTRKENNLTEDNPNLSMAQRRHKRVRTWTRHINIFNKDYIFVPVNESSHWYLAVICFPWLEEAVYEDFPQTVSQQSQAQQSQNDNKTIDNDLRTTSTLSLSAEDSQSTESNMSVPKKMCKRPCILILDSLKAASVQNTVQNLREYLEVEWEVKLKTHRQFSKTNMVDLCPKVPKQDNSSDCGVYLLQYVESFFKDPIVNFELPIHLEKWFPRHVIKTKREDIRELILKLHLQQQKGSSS

[6] = target: T5, Sentrin-specific protease 6 (Homo sapiens, UniProt Q9GZR1); format: functional;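 further: Luminescence-based dose-response confirmatory assay of SENP6 inhibition, following up an ultra-high-throughput screen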
T5 sequence (Q9GZR1 whole entry): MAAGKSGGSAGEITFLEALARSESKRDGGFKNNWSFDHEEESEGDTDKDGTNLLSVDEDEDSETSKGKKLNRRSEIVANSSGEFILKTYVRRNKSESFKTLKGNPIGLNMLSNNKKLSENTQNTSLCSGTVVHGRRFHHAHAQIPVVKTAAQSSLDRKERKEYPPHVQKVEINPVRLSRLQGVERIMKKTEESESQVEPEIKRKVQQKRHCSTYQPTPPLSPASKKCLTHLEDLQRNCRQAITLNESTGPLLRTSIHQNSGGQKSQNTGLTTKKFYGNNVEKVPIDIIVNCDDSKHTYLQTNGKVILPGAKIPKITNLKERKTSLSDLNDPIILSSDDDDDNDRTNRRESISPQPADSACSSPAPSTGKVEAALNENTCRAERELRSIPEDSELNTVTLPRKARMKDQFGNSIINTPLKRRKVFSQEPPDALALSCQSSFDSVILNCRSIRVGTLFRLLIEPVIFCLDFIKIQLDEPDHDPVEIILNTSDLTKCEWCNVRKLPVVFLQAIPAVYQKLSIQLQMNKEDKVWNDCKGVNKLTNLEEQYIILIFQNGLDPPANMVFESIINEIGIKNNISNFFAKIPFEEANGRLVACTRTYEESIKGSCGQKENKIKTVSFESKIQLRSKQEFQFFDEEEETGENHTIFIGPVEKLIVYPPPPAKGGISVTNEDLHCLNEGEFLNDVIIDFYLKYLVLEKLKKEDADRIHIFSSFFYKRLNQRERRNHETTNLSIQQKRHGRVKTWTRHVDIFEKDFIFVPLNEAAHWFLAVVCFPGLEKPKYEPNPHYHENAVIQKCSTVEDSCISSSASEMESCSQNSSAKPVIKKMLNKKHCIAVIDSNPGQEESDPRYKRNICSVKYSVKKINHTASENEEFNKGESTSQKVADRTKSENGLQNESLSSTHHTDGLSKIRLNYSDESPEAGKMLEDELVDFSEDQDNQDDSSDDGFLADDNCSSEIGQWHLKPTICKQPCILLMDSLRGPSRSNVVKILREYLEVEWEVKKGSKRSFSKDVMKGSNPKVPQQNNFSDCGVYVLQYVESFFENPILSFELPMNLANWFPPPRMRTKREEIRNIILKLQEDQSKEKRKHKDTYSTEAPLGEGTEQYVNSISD

[7] = target: T6, Sentrin-specific protease 8 (Homo sapiens, UniProt Q96LD8); format: functional;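 further: luminescence read-out of SENP8 inhibition, dose-response confirmation following an ultra-high-throughput screen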
T6 sequence (Q96LD8 whole entry): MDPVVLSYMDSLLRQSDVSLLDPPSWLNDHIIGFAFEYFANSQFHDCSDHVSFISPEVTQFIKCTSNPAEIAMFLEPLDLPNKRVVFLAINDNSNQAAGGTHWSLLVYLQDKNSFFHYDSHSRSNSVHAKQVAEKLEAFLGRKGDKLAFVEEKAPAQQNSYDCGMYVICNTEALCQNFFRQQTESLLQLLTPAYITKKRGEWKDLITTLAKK

[8] = blockers of HIV-1 envelope-mediated cell-cell fusion – cherry-pick, dose response (AID 652057); format: functional, cell-based
[9] = blockers of HIV-1 ZM109 envelope-driven cell-cell fusion – HeLa effector, CEM target cells, luciferase, cherry-pick, dose response (AID 652058); format: functional, cell-based;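 further: luciferase signal from HIV-1 Env mediated cell-cell fusion of effector and target cells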
[10] = off-target signal loss in HeLa-CEM21 co-culture – HeLa F-luc CTL cells, cherry-picked, counter-screen for HIV-1 Env fusion inhibitor project, dose response (AID 652040); format: functional, cell-based;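 further: potency for signal decrease marking cytotoxic or nonspecific inhibition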
[11] = HIV-1 AD8 envelope cell-cell fusion blockers – cherry-pick, dose response (AID 652062); format: functional, cell-based;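 further: luciferase signal from cell-cell fusion driven by HIV-1 clade B AD8 Env; potency is for inhibitors of fusion seen as a drop in luminescence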
[12] = viability of uninfected HEp-2 cells – cell-based, HTS, cytotoxicity control for RSV inhibitor project, dose response (AID 2410); format: functional; conditions: human respiratory syncytial virus
[13] = Trypanosoma cruzi growth suppression in host cells – NIH3T3 host cells, beta-gal luminescence, confirmation (AID 2044); format: functional, cell-based;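 further: intracellular parasites grown in NIH/3T3 mouse fibroblasts as host cells; luminescent beta-galactosidase reporter signal from transgenic T. cruzi replicating inside host cells; inhibitors lower the luminescence signal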
[14] = NIH3T3 cell viability loss – ATP luminescence, mouse fibroblasts, counter-screen, dose response (AID 2010); format: functional, cell-based;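 further: cells exposed to compound for about 90 hours before reading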
[15] = target: Paired box protein Pax-8 (Homo sapiens, UniProt Q06710); assay: PAX8 transcriptional activity inhibition in RMG-I – RMG-I cells, luciferase, cherry-pick, dose response (AID 687027); format: functional, cell-based;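 further: luciferase reporter driven by Pax8 target thyroperoxidase promoter measured by SteadyGlo luminescence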
[16] = OVCAR-3 cell viability loss – plate reader, dry powder samples, PAX8 inhibitor project, dose response (AID 743044); format: functional, cell-based
[17] = general cell-killing toxicity readout – plate reader, dry powder samples, cytotoxicity control for PAX8 inhibitor project, dose response (AID 743021); format: functional, cell-based
[18] = OVCAR8 cell viability loss – plate reader, dry powder samples, PAX8 project, dose response (AID 743197); format: functional, cell-based; conditions: OVCAR-8
[19] = viability loss in THP-1 monocytes – THP-1 cells, cytotoxicity control for Vif-APOBEC3G degradation inhibitor project, dose response (AID 1117359); format: functional; conditions: THP-1
[20] = target: Cytochrome P450 2D6 (Homo sapiens, UniProt P10635);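 further: CYP2D6 member of a cytochrome P450 panel assay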
Cytochrome P450 2D6, sequence (P10635 whole entry): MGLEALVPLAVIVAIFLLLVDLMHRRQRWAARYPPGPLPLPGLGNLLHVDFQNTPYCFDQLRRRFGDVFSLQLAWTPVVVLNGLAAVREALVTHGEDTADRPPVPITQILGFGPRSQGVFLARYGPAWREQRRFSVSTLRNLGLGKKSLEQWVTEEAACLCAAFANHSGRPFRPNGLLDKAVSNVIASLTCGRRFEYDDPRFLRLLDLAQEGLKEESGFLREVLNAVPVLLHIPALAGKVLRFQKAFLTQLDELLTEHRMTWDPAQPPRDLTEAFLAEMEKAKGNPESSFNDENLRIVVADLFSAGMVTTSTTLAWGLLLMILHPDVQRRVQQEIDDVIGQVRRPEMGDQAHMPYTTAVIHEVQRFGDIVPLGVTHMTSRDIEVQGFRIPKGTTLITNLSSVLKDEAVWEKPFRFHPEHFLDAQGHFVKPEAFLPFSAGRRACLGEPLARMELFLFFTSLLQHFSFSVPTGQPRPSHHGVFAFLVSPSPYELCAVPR

Paired box protein Pax-8, sequence (Q06710 whole entry): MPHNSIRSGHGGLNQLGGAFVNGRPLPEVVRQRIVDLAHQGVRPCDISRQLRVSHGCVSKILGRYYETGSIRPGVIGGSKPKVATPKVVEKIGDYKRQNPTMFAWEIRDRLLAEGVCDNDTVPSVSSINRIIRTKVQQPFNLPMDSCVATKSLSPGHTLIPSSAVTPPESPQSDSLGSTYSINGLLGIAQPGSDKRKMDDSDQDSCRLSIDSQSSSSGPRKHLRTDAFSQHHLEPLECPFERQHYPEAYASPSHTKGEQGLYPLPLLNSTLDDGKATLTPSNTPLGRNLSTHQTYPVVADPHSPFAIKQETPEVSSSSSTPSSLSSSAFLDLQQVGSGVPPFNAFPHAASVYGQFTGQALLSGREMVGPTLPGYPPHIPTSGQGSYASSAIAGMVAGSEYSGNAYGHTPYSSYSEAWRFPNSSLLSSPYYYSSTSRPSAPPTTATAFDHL

With Cc1c(C=O)c2ccccn2c1C(=O)c1ccccc1 the EC50 [1] was > 50 µM (active).

In the case of COC(=O)c1ccccc1NC(=O)Nc1cc(C)ccn1, the IC50 [2] is reported as > 50 µM (inactive).

In the case of O=C1Cc2ccccc2C(=O)N1Nc1ccccc1, the AC50 [3] is reported as 51.5 µM (active).

With COc1ccc(-c2cc(-c3nnc(COC(=O)CC4CC5CCC4C5)o3)c3ccccc3n2)cc1OC (configuration not stated) the IC50 [2] was > 50 µM (inactive).

In the case of O=C(O)c1c2c(nc3ccc(Cl)cc13)CCC2, the AC50 [3] is reported as 28.8 µM (active).

For O=C(COC(=O)c1cccc(NC(=O)c2ccco2)c1)c1ccc(Br)cc1, the IC50 [4] was 32.2 µM (active), the IC50 [5] was 6.05 µM (active) and the IC50 [6] was 9.01 µM (active). For the same compound, the IC50 [7] was 8.37 µM (active).

In the case of CCc1ccc([C@H]2[C@@H]3C(=O)C[C@@H]4C(=O)N(C5CCCCC5)C(=O)[C@@H]4[C@@H]3CN2S(=O)(=O)c2ccc(C)cc2)cc1, the AC50 [8] is reported as 1.09 µM (active), the AC50 [9] is reported as 1.99 µM (active) and the AC50 [10] is reported as 2.53 µM (active). For the same compound, the AC50 [11] was 2.15 µM (active).

With CCn1nnnc1SCC(=O)c1cc(Cl)ccc1OC the EC50 [1] was > 50 µM (active).

For COCC1CCCN(Cc2c[nH]nc2-c2cc3ccccc3o2)C1 (configuration not stated), the EC50 [1] was > 50 µM (active).

For CCC(=O)OCCn1c(=O)c2cc3c(=O)n(CCOC(=O)CC)c(=O)c3cc2c1=O, the IC50 [2] was > 50 µM (inactive).

With O=c1c(-c2cc(O)[nH]n2)c(O)c2ccccc2n1Cc1ccccc1 the AC50 [3] was 19.7 µM (active).

For O=C(Nc1ccc2[nH]c(-c3ccc(Br)o3)nc2c1)c1cccs1, the CC50 [12] was 24 µM (active), the EC50 [1] was > 50 µM (active) and the EC50 [13] was 3.18 µM (active). The EC50 [14] was > 60 µM (not active).

With Cc1ccc(NC(=O)/C(CN(C)C)=N\O)cc1 the IC50 [2] was > 50 µM (inactive).

For CSCCC(NS(=O)(=O)c1ccc2c(c1)oc(=O)n2C)C(=O)NC1CCCc2ccccc21 (configuration not stated), the AC50 [8] was 4.21 µM (active), the AC50 [9] was 3.16 µM (active) and the AC50 [10] was 7.6 µM (active). The AC50 [11] was 8.37 µM (active).

In the case of O=C(C[C@@H]1C[C@@H]2c3cc(NS(=O)(=O)c4ccc(F)cc4)ccc3O[C@@H]2[C@@H](CO)O1)NCc1ccc(Oc2ccccc2)cc1, the AC50 [15] is reported as 6.15 µM (active), the AC50 [16] is reported as 22.1 µM (active) and the AC50 [17] is reported as 27.8 µM (active). For the same compound, the AC50 [18] was 17.9 µM (active).

In the case of O=C(OCC(=O)N1CCCc2ccccc21)c1ccc(Cl)nc1, the IC50 [2] is reported as > 50 µM (inactive).

In the case of Cc1ccc(S(=O)(=O)N(CC(=O)NCCC2=CCCCC2)Cc2ccccc2F)cc1, the CC50 [19] is reported as > 40 µM (active) and the AC50 [20] is reported as 20 µM (inconclusive).

For Cc1ccnc(Nc2nc(-c3ccccc3)cs2)c1, the IC50 [4] was 13.1 µM (active), the IC50 [5] was 1.78 µM (active) and the IC50 [6] was 7.16 µM (active). The IC50 [7] was 3.93 µM (active).
